From article PMC10060569 (Frontiers in Pharmacology, 2023) come the findings set out here.

In test [1] the test system is G189A/S15V-hP2X3R. As to the kind of experiment: TEVC of ATP-induced currents, G189A/S15V-hP2X3R mutant in X. laevis oocytes. It is filed as cell-based, human. As to conditions: ± SEM.
Procedure: Ion currents mediated by P2X receptors were evoked by the indicated concentration of ATP or α,β-meATP and were recorded 1 or 2 days after cRNA injection at ambient temperature at a holding potential of −60 mV by two-electrode voltage clamp (TEVC) as previously described ([Hausmann et al., 2006]). Calcium-free ORi^− solution (90 mM NaCl, 1 mM KCl, 2 mM MgCl2, 10 mM HEPES, pH 7.4) was used to avoid bias due to calcium-activated chloride channels (CaCC) endogenously expressed in X. laevis oocytes ([Miledi, 1982]; [Methfessel et al., 1986]). […]
In the case of fast-desensitizing P2XR subtypes (P2X1R and P2X3R), ATP is applied five times in repetition, and the ATP-induced current amplitude in the presence (after pre-incubation) of the antagonist (fourth application) is compared to the arithmetic mean of flanking control ATP-induced current amplitudes in the absence of the antagonist (third and fifth ATP application). […] The correction factor was calculated as the ratio of the fourth ATP-induced current amplitude to the third amplitude (Eq. 3) when the experiment was performed in the absence of the antagonist. […] Since the magnitude of the run-down varies from day to day and batch to batch of oocytes, the correction factor was determined on each day of the experiments and was calculated as the arithmetic mean of several recordings (at least 3–5 and on average 5) on each day.
Test [2] concerns the target T1, 20KVIV23/26N-hP2X1R (Homo sapiens, UniProt P51575, L23V/M21V/R20K/V22I).
T1 construct: expressed in transfected cells; host or cells: Xenopus laevis oocytes (cRNA injection)
T1 sequence (P51575 1-399 R20K/M21V/V22I/L23V): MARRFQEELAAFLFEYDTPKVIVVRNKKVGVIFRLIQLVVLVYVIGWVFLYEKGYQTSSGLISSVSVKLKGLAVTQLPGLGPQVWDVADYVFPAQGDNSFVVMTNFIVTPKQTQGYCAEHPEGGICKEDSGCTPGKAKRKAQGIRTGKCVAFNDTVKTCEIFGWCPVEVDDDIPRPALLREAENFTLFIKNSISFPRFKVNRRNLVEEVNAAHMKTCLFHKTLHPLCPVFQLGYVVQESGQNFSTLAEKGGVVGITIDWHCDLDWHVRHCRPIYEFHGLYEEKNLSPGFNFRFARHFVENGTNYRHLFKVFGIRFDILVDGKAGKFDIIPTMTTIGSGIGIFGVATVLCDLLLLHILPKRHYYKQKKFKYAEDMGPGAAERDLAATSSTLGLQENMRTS
Kind of test: TEVC of ATP-induced currents, hP2X1R mutant in X. laevis oocytes (peak current protocol). Format: cell-based. The text has this: Oocyte expression plasmids encoding the wild-type (wt) and N-terminally His-tagged (His-) fusion constructs of the hP2X2R, hP2X3R, hP2X4R, and hP2X7R, and the mutant His-^20RMVL^23KVIV^23S^26N-hP2X1R, S^15V-rP2X3R, and His-S^15V-hP2X3R were the same as used in previous research ([Hausmann et al., 2006]; [Wolf et al., 2011]; [Hausmann et al., 2014]; [Obrecht et al., 2019]). In most cases, the N-terminal His-tagged variants of P2XRs were used here and in the previous studies to allow biochemical analyses on affinity-purified proteins using the same constructs. Although this was not required for the present study, it allows for better comparability with our previous studies. Capped cRNAs of different P2XRs were already available in the research group or were synthesized as previously described ([Schmalzing et al., 1991]; [Stolz et al., 2015]). cRNA was injected into collagenase-defolliculated X. laevis oocytes in aliquots of 41 nl or 23 nl (see Supplementary Table S1 for the amount of cRNA used for expression of the indicated P2XR) using a Nanoliter 2000 injector (World Precision Instruments, Sarasota, United States of America) as described previously ([Hausmann et al., 2014]; [Stolz et al., 2015]; [Obrecht et al., 2019]). To express the heteromeric hP2X2/3 receptor, cRNAs encoding His-hP2X2R and wt-hP2X3R were coinjected at a ratio (w/w) of 1:6. Oocytes were stored at 19°C in an oocyte ringer solution (ORi^+) containing 90 mM NaCl, 1 mM KCl, 1 mM CaCl2, 1 mM MgCl2, and 10 mM HEPES (Carl Roth, Karlsruhe, Germany) adjusted to pH 7.4 with NaOH and supplemented with 50 μg/ml gentamicin (AppliChem, Darmstadt, Germany). […]
Ion currents mediated by P2X receptors were evoked by the indicated concentration of ATP or α,β-meATP and were recorded 1 or 2 days after cRNA injection at ambient temperature at a holding potential of −60 mV by two-electrode voltage clamp (TEVC) as previously described ([Hausmann et al., 2006]). […]

As a reminder, the IC50 is the concentration that inhibits the measured activity by half. The low end stands for greater potency, the high end for weaker potency. In general, inhibition refers to how much of the control response was suppressed. Turning to `O=C(O)Cc1ccccc1Nc1c(Cl)cccc1Cl` [Diclofenac, diclofenac], the “% inhibition of 10 µM ATP-induced currents by 10 µM diclofenac” value in test [1] is 6.4% ± 3.0%. For the same molecule, the “reversibility of the inhibitory effect” value in test [2] was “reversible”. The same molecule registered an IC50 in test [2] (1 µM ATP, peak current protocol, X. laevis oocytes) of 338 µM. Further, in test [2] (read-out: Max. inhibition at 1 mM), the inhibition at 1000 µM is 86.2%.
